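Five concentrations, 48 hours, 96-well plates. TGI denotes the concentration required for complete inhibition of growth.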
Experiments:
Test in all cases: NCI anticancer screen, dose series, 48 h
U251 CNS = test system: U251 CNS
KM20L2 colon = test system: KM20L2 colon
MCF7 breast = test system: MCF7 breast
BT-549 breast = test system: BT-549 breast
NCI/ADR-RES ovarian = test system: NCI/ADR-RES ovarian
K-562 leukemia = test system: K-562 leukemia
DMS 114 small cell lung = test system: DMS 114 small cell lung
MOLT-4 leukemia = test system: MOLT-4 leukemia
SK-MEL-28 melanoma = test system: SK-MEL-28 melanoma
HOP-18 NSCLC = test system: HOP-18 NSCLC
SF-539 CNS = test system: SF-539 CNS
UO-31 renal = test system: UO-31 renal
DU-145 prostate = test system: DU-145 prostate
T-47D breast = test system: T-47D breast
NCI-H23 lung = test system: NCI-H23 lung
SW-620 colon = test system: SW-620 colon
HCC-2998 colon = test system: HCC-2998 colon
M19-MEL melanoma = test system: M19-MEL melanoma
MDA-MB-435 = test system: MDA-MB-435
LXFL 529 NSCLC = test system: LXFL 529 NSCLC
SK-MEL-5 melanoma = test system: SK-MEL-5 melanoma
KM12 colon = test system: KM12 colon
SK-OV-3 ovarian = test system: SK-OV-3 ovarian
TK-10 renal = test system: TK-10 renal
HCT-116 colon = test system: HCT-116 colon
ACHN renal = test system: ACHN renal
SF-268 CNS = test system: SF-268 CNS
CCRF-CEM leukemia = test system: CCRF-CEM leukemia
SR leukemia = test system: SR leukemia
OVCAR-3 ovarian = test system: OVCAR-3 ovarian
XF 498 CNS = test system: XF 498 CNS
UACC-257 melanoma = test system: UACC-257 melanoma
MALME-3M melanoma = test system: MALME-3M melanoma
NCI-H522 lung = test system: NCI-H522 lung
HOP-62 NSCLC = test system: HOP-62 NSCLC
A549 NSCLC = test system: A549 NSCLC
MDA-MB-231 breast = test system: MDA-MB-231 breast
A498 renal = test system: A498 renal
SNB-19 CNS = test system: SNB-19 CNS
786-0 renal = test system: 786-0 renal
OVCAR-4 ovarian = test system: OVCAR-4 ovarian
RPMI-8226 leukemia = test system: RPMI-8226 leukemia
HCT-15 colon = test system: HCT-15 colon
SF-295 CNS = test system: SF-295 CNS
NCI-H226 lung = test system: NCI-H226 lung
COLO 205 colon = test system: COLO 205 colon
HT29 colon = test system: HT29 colon
DLD-1 colon = test system: DLD-1 colon
MDA-N = test system: MDA-N
SK-MEL-2 melanoma = test system: SK-MEL-2 melanoma
RXF 393 renal = test system: RXF 393 renal
SNB-78 CNS = test system: SNB-78 CNS
UACC-62 melanoma = test system: UACC-62 melanoma
SN12C renal = test system: SN12C renal
OVCAR-5 ovarian = test system: OVCAR-5 ovarian
PC-3 prostate = test system: PC-3 prostate
HOP-92 NSCLC = test system: HOP-92 NSCLC
M14 melanoma = test system: M14 melanoma
SNB-75 CNS = test system: SNB-75 CNS
IGROV1 ovarian = test system: IGROV1 ovarian
OVCAR-8 ovarian = test system: OVCAR-8 ovarian
DMS 273 small cell lung = test system: DMS 273 small cell lung
LOX IMVI melanoma = test system: LOX IMVI melanoma
HS 578T breast = test system: HS 578T breast
CAKI-1 renal = test system: CAKI-1 renal
EKVX NSCLC = test system: EKVX NSCLC
NCI-H460 lung = test system: NCI-H460 lung

Measured: TGI

Cc1cc(NC(=O)C(=O)Cc2nc3ccccc3s2)ccc1Cl
> 100 µM: all assays above

From PubChem BioAssay (NCI)
